# Laboratory results reported in patent US20120157471A1, “BENZIMIDAZOLE DERIVATIVES” (PFIZER INC., priority 2009, published 2012).
# Legend:
# [1] = target: T1, human Smo (amino acids 181-787) (Homo sapiens, UniProt Q99835); assay: Smo radioligand competition binding assay (displacement of 3H-PF-03451358 from HEK293 membranes); conditions: for inhibition at 0.05 µM: 0.05 μM test compound, displacement of 3H-PF-03451358, read-out: SMO % inh. @ 0.05 μM; for IC50: radioligand competition binding
# T1 construct: expressed in transfected cells; membrane preparation
# T1 sequence (Q99835 181-787): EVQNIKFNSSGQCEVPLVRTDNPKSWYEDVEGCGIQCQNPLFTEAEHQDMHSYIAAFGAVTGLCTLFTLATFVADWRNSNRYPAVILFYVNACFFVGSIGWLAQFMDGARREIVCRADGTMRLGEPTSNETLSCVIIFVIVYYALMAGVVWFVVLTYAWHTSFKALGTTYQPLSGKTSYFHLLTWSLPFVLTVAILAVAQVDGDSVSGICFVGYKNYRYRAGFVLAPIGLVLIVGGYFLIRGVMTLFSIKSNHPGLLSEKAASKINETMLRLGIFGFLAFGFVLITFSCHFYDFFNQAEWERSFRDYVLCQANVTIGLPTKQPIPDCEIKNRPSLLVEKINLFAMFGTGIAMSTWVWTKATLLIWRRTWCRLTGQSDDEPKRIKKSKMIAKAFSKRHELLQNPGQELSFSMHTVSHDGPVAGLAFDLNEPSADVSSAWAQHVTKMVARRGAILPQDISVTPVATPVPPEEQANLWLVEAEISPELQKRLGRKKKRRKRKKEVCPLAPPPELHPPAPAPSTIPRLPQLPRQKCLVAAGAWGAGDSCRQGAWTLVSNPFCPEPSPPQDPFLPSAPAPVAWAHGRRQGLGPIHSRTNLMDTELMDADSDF
# Description: Membranes were prepared from a stable cell line created in HEK293FlpIn-TetR cells (Invitrogen) using FIp recombinase-mediated insertion of the pSecTag-FRT/V5-His vector containing a cDNA encoding amino acids 181-787 of human Smo fused to the murine lgk leader sequence to produce a cell surface expressed Smo 181-781 protein. Hygromycin-resistant clones were obtained and stained for LacZ expression (no expression indicates a correct knock-in of my fusion cDNA). LacZ-negative cells were analyzed for binding tritiated Smo antagonist PF-03451358. For membrane preparation, the HEK293 cells expressing Smo 181-781 were grown to 90% confluence in nine to fifteen 245 mm×245 mm×22 mm dishes, washed with Dulbecco's PBS (15 ml per dish) and harvested via scraping in 10 ml of DPBS. The cells were collected and centrifuged at 1500 rpm (400×g) for 10 min at 4° C. The cell pellets were re-suspended in 40 ml of cold DPBS and washed by centrifugation at 2300 rpm (950×g max) for 10 minutes at 4° C. The supernatant was aspirated and the cell pellet was snap frozen in a methanol/dry ice bath and stored at −70° C. For membrane preparation, 15 ml of Membrane Preparation Buffer (50 mM Tris-HCl pH 7.5, 250 mM sucrose with Roche complete protease cocktail tablets) is added to the tube containing the cell pellet, then cells are rapidly thawed, and homogenized using an Ultra-Turrax T8 (IKA Labortechnik) set on “6” for 15 seconds for 5-6 times in icy water bath. This homogenate was diluted up to 50 ml using Membrane Preparation Buffer and centrifuged at 35,000 rpm in a Beckman Ti45 rotor (140,000×g) for 35 minutes at 4° C. followed by aspiration of the supernatant and re-suspension of the pellet in 5 ml of Assay Buffer (50 mM Tris-HCl pH 7.5, 100 mM NaCl, 25 mM MgCl2, 1 mM EDTA, and 0.1% protease free bovine serum albumin). The re-suspended pellet is then homogenized in a glass tissue grinder. The re-suspended membranes are aliquoted (0.5 ml aliquots), snap frozen and stored at −70° C. Total protein in the membrane preparation is determined using the Pierce BCA protein assay (Pierce Chemical).
# For the binding competition assay, 100 μl of Assay Buffer is added to all the wells of a 96 well GF/B filter plate (Millipore MultiScreen-HTS-FB cat# MSFBN6B50) for 10 minutes to pre-wet the filter prior to evacuation of the buffer (8 inches Hg for 8 seconds). To the pre-wet wells is added: 20 μl of Assay Buffer, 10 μl diluted test agent, 20 μl of ^3H-PF-3451358 (15 nM stock solution), and 50 μl of membrane preparation (40 μg total protein per well). The plates are sealed and mixed at room temperature for 5 min, incubated at room temperature for 2 hours, then washed 5 times with 100 μl/each of wash buffer and vacuum dried for 8 seconds at 8 inch Hg. The plate is then dried for one hour in a 60° C. oven prior to the addition of 45 μl of Microscint 20 (Packard, #6013621) to each well and incubation at RT for 30 minutes to 1 hour. The plate is counted in a TopCount scintillation counter (Perkin Elmer).
# Data analysis uses Excel for % Inhibition and Graphpad Prism for IC50 calculation. Total binding (TB, in the absence of inhibitors)=average of ^3H PF-03451358 3 nM+SMO membrane (40 μg/wells (approx 5000-7000 CPM). Non-specific binding (NSB)=average of ^3H PF-03451358 (3 nM)+cold PF-03451358 (30 μM)+SMO membrane (approx 600-1200 CPM). Specific binding (SB)=(total binding−non-specific binding). % Inhibition=[1−(compound Specific binding/control Specific binding)]×100%. IC50 is calculated by fitting the data to the four parameter sigmoidal dose-response curve (variable slope) Y=Bottom+(Top-Bottom)/(1+10̂((LogEC50−X)*HillSlope)). X is the logarithm of the inhibitor concentration. Y is the response; Y starts at Bottom and goes to Top with a sigmoid shape.
# [2] = system: Gli-Luc/MEF cells (Smo); assay: Gli-Luc/MEF assay (Shh-stimulated luciferase reporter under the Gli response element); format: cell-based, mouse; conditions: Mus musculus, MEF, 48 h
# Description: The Gli-Luc/MEF cells obtained from Gli-Luc transgenic mice (Pfizer CoE, Genetically Modified Mice) contain a luciferase reporter gene under the control of the Gli response element. Luciferase activity stimulated with Sonic hedgehog ligand was inhibited by Smo inhibitors, and IC50 was subsequently calculated.
# Plates were incubated at 37° C. and 5% CO2 overnight. On day two, cells were dosed with test compounds at a final concentration ranging from […] to 50 μM at a 3-time series dilution. Immediately after dosing cells with compounds, recombinant mouse sonic hedgehog (Shh, R&D Systems 464-SH) was added to a final concentration of 2 μg/mL. The cells were incubated with compounds and Shh for 48 hours at 37° C. and 5% CO2. Luciferase assays were conducted on Day 4 using the Bright-Glo Luciferase assay system (Promega E2620) according to Promega's protocol. Briefly, Bright-Glo luciferase reagent was made up and 25 uL were added to each well of the 384-well plate containing media. Plates were kept at room temperature for 5 minutes, and then read on an Envision Luminescence plate reader (Perkin-Elmer). IC50 of the inhibition was calculated by using GraphPad Prism.
SMILES,inhibition at 0.05 µM [1] [%],IC50 [2] [nM],IC50 [1] [nM]
"Cn1c(-c2cc(N3C[C@@H](O)[C@H](O)C3)ncc2Cl)nc2ccccc21 [Example A-127, (3R,4R)-1-[5-chloro-4-(1-methyl-1H-benzimidazol-2-yl)pyridin-2-yl]pyrrolidine-3,4-diol]",57,128,
"Cn1c(-c2cc(N3CCC(N4CCCC4=O)CC3)ncc2Cl)nc2ccccc21 [Example A-81, 1-{1-[5-chloro-4-(1-methyl-1H-benzimidazol-2-yl)pyridin-2-yl]piperidin-4-yl}pyrrolidin-2-one]",91,10,24
"Cn1c(-c2cc(N3CCn4cnnc4C3)ncc2Cl)nc2ccccc21 [Example A-109, 7-[5-chloro-4-(1-methyl-1H-benzimidazol-2-yl)pyridin-2-yl]-5,6,7,8-tetrahydro[1,2,4]triazolo[4,3-a]pyrazine]",75,140,129
"CNC(=O)N1CCCN(c2cc(-c3nc4ccccc4n3C)ccn2)CC1 [Example A-155, N-methyl-4-[4-(1-methyl-1H-benzimidazol-2-yl)pyridin-2-yl]-1,4-diazepane-1-carboxamide]",97,12,22
"Cn1c(-c2nc(N3CCN(S(C)(=O)=O)CC3)ncc2Cl)nc2ccccc21 [Example C-3, 2-{5-Chloro-2-[4-(methylsulfonyl)piperazin-1-yl]pyrimidin-4-yl}-1-methyl-1H-benzimidazole]",96,19,9
"COC(=O)N1CCN(c2cc(-c3nc4ccccc4n3C)c(F)cn2)CC1 [Example D-2, methyl 4-[5-fluoro-4-(1-methyl-1H-benzimidazol-2-yl)pyridin-2-yl]piperazine-1-carboxylate]",95,13,13
"Cn1c(-c2cc(N3[C@@H]4CC[C@H]3CNC4)ncc2Cl)nc2ccccc21 [Example A-194, 2-{5-chloro-2-[(1R,5S)-3,8-diazabicyclo[3.2.1]oct-8-yl]pyridin-4-yl}-1-methyl-1H-benzimidazole]",111,3.7,13
"Cn1c(-c2cc(N3CCN(S(=O)(=O)CC(C)(C)O)CC3)ncc2F)nc2ccccc21 [Example D-16, 1-({4-[5-fluoro-4-(1-methyl-1H-benzimidazol-2-yl)pyridin-2-yl]piperazin-1-yl}sulfonyl)-2-methylpropan-2-ol]",94,3,9
"CC(=O)N1CCCN(c2cc(-c3nc4ccccc4n3C)c(Cl)cn2)CC1 [Example A-50, 2-[2-(4-acetyl-1,4-diazepan-1-yl)-5-chloropyridin-4-yl]-1-methyl-1H-benzimidazole]",100,4,7
"Cn1c(-c2cc(N3CCC(OCCO)CC3)ncc2Cl)nc2ccccc21 [Example A-79, 2-({1-[5-chloro-4-(1-methyl-1H-benzimidazol-2-yl)pyridin-2-yl]piperidin-4-yl}oxy)ethanol]",92,7,23
"CNC(=O)N1CCN(c2ccc(Cl)c(-c3nc4ccccc4n3C)n2)CC1 [Example B-3, 4-[5-chloro-6-(1-methyl-1H-benzimidazol-2-yl)pyridin-2-yl]-N-methylpiperazine-1-carboxamide]",88,20,49
"Cn1c(-c2cc(N3CCC(C(=O)N4CCCC4)CC3)ncc2Cl)nc2ccccc21 [Example A-100, 2-{5-chloro-2-[4-(pyrrolidin-1-ylcarbonyl)piperidin-1-yl]pyridin-4-yl}-1-methyl-1H-benzimidazole]",83,21,55
"Cn1c(-c2cc(N3CCN(C(=O)c4ncn[nH]4)CC3)ncc2Cl)nc2ccccc21 [Example A-56, 2-{5-chloro-2-[4-(1H-1,2,4-triazol-3-ylcarbonyl)piperazin-1-yl]pyridin-4-yl}-1-methyl-1H-benzimidazole]",98,9,21
"Cc1cn(C2CN(c3cc(-c4nc5ccccc5n4C)c(Cl)cn3)C2)c(=O)[nH]c1=O [Example A-121, 1-{1-[5-chloro-4-(1-methyl-1H-benzimidazol-2-yl)pyridin-2-yl]azetidin-3-yl}-5-methylpyrimidine-2,4(1H,3H)-dione]",62,94,
"CC(=O)N(C)C1CN(c2cc(-c3nc4ccccc4n3C)c(Cl)cn2)C1 [Example A-177, N-{1-[5-chloro-4-(1-methyl-1H-benzimidazol-2-yl)pyridin-2-yl]azetidin-3-yl}-N-methylacetamide]",73,38,174
"Cn1c(-c2cc(N3CCN(C(=O)CO)CC3)ncc2F)nc2ccccc21 [Example D-17, 1-{4-[5-fluoro-4-(1-methyl-1H-benzimidazol-2-yl)pyridin-2-yl]piperazin-1-yl}-2-hydroxyethanone]",96,13,15
"Cn1c(-c2cc(N3CC(NS(C)(=O)=O)C3)ncc2Cl)nc2ccccc21 [Example A-41, N-{1-[5-chloro-4-(1-methyl-1H-benzimidazol-2-yl)pyridin-2-yl]azetidin-3-yl}methanesulfonamide]",98,4,7
"CC(=O)N[C@H]1[C@@H]2CN(c3cc(-c4nc5ccccc5n4C)c(Cl)cn3)C[C@@H]21 [Example A-9, N-{(1R,5S,6S)-3-[5-chloro-4-(1-methyl-1H-benzimidazol-2-yl)pyridin-2-yl]-3-azabicyclo[3.1.0]hex-6-yl}acetamide]",74,23,189
"Cn1c(-c2cc(N3CCC4(CC3)CC(O)CCO4)ncc2Cl)nc2ccccc21 (stereo not shown) [Example A-204, 9-[5-chloro-4-(1-methyl-1H-benzimidazol-2-yl)pyridin-2-yl]-1-oxa-9-azaspiro[5.5]undecan-4-ol]",96,12.6,19
COC(=O)NC1CN(c2cc(-c3nc4ccccc4n3C)c(Cl)cn2)C1 [Example A-44],89,22,59
